Consider 3 substances from US20050002904A1, “Uses of vascular endothelial growth factor and type I collagen inducible protein (VCIP)” (priority 2003, published 2005).

Where no end group is shown, it is not given here.

For assay [1], the system named is WT and MT HEK293 cells. Nature of the assay: Cell aggregation assay, mixed dye-labelled WT and MT cells. To be noted: WT mixed with MT cells; 12 h. Type of assay: cell-based. As to the method:
FIGS. 9A-F show VCIP mediates heterophilic cell-cell interactions. Magnification, 200×. Bar, […]. *, P<0.05. The images of cell aggregates appear out of focus. FIG. 9A: Representative photomicrograph of a mixture of WT and MT cells labeled with red (Dil) and green (DiO) fluorescent dyes at 0 h. FIG. 9B: Small and large cell-aggregates were visible after 6 h; green arrowheads indicate the most productive cell aggregation (yellow). FIG. 9C: Representative large cell aggregates are shown after 12 h. FIG. 9D: Cells co-incubated with the GRGDSP peptide for 12 h. FIG. 9E: Cells co-incubated with anti-VCIP-RGD antibody (25 μg/ml) after 12 h. All experiments were performed at least three times in triplicates.
To monitor aggregation, cells were labeled with optimal non-toxic concentrations of fluorescent dyes. This assay was performed essentially according to the protocol described by Niessen and Gumbiner (2002), with minor modifications. […] The inhibitory effects of EDTA, peptides and antibodies on cell aggregation were determined at the end of 12 h. […] Experiments were performed at least three times with each time point analyzed in triplicate. Only productive cell aggregates (yellow) were counted. […] Numbers were expressed as the percentage of total aggregates counted. […]

In assay [2] the test system is SW480 cells on monolayer HUVECs. The assay can be described thus: Adhesion of SW480 cells to HUVEC monolayer. To be noted: pre-incubation; GRGDSP 10, 20 μM; antibody 20, 40 μg/ml; 1 hr. Type of assay: cell-based, human. How it is done:
FIGS. 7A-O show the effects of VCIP on adhesion of cadherin-deficient SW480 cells to HUVECs monolayer. SW480-C, SW480-WT, and SW480-MT cells were non-enzymatically detached from dishes, washed, passed through a cell strainer, counted, and labeled with a fluorescent dye (red) prior to experiments. HUVECs were seeded onto 12-well dishes in complete media and allowed to form a 100% confluent monolayer on the day of assay. Monolayer HUVECs were washed once each with PBS and HCMF, and then preincubated in HCMF supplemented with Ca^2+/Mg^2+ for 10 min at 37° C. SW480 cells (0.25×10^6) were finely resuspendend in 500 μl of HCMF buffer supplemented with Ca^2+/Mg^2+, layered onto the monolayer, and allowed to attach at 37° C. for 1 hr. Unattached cells were removed by washing with PBS and adherent cells were fixed with 4% paraformaldehyde. The number of cells adhered to the monolayer were determined using a phase-contrast microscope. Experiments were performed at least three times in triplicates, with three independent clones. […] In each experiment, the relative percentage of cell adhesion was calculated and presented as mean±SD. […] Data are expressed as mean±S.D. (n≧7), *P<0.05. […]

Assay [3] deals with p120catenin. The assay can be described thus: Far-western assay with GST-PAP2b-cyto fusion protein. It is filed as binding, human. To be noted: 2 μg/ml fusion protein. How it is done:
FIGS. 17A-H show interaction of PAP2b/VCIP with p120 catenin in endothelial cells. FIGS. 17A-B: Clarified cell lysates were prepared from endothelial cells infected with indicated PAP2b retroviral constructs A-E as shown in FIG. 14 and subjected to immunoprecipitation with: anti-HA (lanes 1, 2, 4, 5 and 6) or anti-p120 catenin (lane 3) and analyzed by immunoblotting with the indicated antibodies. FIGS. 17C-H: Far western analysis. Endothelial cells were solubilized in RIPA buffer, and immunoprecipitated using indicated antibodies (5 μg/1.5 mg protein). The membrane shown in FIG. 17C was incubated with 2 μg/ml of Gst-PAP2b-cyto fusion protein for 1 hour, washed with 1×TBS+tween (0.1%) and analyzed by immunoblotting with anti-Gst monoclonal antibodies (2 μg/ml). Individual lanes from the blot was excised and probed with: anti-VE-cadherin (FIG. 17D), anti-p120ctn (FIG. 17E), anti-β-catenin (FIG. 17F), anti-γ-catenin (FIG. 17G), and β1-integrin (FIG. 17H) monoclonal antibodies. […]
To further substantiate that the C-terminal cytoplasmic domain of PAP2b was indeed the region involved in the interaction, far-western assay (Wary et al., 1996) was performed using recombinant affinity purified GST-PAP2b-cyto fusion protein as follows. […] After rinsing with TBS, pH 7.5, the membrane was incubated with anti-Gst mouse monoclonal antibodies and detected as previously described (Schor et al., 1996). […]

Consider GRADSP [control peptide], for which the “inhibition of cell aggregation” value in assay [1] is given as “did not”. Regarding “GRGDSP (CHAIN a peptide containing RGD sequence)”, in assay [1], the “inhibition of cell aggregation” value was “dose-dependently inhibited cell aggregation”. For the same substance, the “blocking of adhesion of pLNCX2-VCIP-RGD SW480 cells to monolayer HUVECs” value in assay [2] is “blocked”. For the substance “GST-PAP2b-c-cyto: recombinant affinity purified GST fusion of the C-terminal cytoplasmic domain of PAP2b (LSLPAPAIRKEILSPVDIIDRNNHHNMM; also: GST fusion)”, in assay [3], the “interaction with p120catenin” value is “sufficient to interact with p120catenin”; the “reaction with VE cadherin, β- and γ-catenin, or β1-integrin polypeptides” value was “did not react”.
